Literature values, collected in US20140127235A1, “TARGETING HK alpha FOR CONTROLLING BLOOD PRESSURE AND REGULATING ELECTROLYTE BALANCE” (UNIVERSITY OF FLORIDA RESEARCH FOUNDATION, INC., priority 2011, published 2014).

What was measured:
H^+,K^+-ATPase = details: rats, seven days low, normal or high aldosterone levels, normal and high K+ diets; cited from earlier work
HKa2 mRNA = details: progesterone alone (Elabida et al., 2011); cited from earlier work
[1] = target: HKα1-containing H^+,K^+-ATPases (Homo sapiens, UniProt P20648); details: subsequent studies; cited from earlier work
Sequence of HKα1-containing H^+,K^+-ATPases (P20648 whole entry): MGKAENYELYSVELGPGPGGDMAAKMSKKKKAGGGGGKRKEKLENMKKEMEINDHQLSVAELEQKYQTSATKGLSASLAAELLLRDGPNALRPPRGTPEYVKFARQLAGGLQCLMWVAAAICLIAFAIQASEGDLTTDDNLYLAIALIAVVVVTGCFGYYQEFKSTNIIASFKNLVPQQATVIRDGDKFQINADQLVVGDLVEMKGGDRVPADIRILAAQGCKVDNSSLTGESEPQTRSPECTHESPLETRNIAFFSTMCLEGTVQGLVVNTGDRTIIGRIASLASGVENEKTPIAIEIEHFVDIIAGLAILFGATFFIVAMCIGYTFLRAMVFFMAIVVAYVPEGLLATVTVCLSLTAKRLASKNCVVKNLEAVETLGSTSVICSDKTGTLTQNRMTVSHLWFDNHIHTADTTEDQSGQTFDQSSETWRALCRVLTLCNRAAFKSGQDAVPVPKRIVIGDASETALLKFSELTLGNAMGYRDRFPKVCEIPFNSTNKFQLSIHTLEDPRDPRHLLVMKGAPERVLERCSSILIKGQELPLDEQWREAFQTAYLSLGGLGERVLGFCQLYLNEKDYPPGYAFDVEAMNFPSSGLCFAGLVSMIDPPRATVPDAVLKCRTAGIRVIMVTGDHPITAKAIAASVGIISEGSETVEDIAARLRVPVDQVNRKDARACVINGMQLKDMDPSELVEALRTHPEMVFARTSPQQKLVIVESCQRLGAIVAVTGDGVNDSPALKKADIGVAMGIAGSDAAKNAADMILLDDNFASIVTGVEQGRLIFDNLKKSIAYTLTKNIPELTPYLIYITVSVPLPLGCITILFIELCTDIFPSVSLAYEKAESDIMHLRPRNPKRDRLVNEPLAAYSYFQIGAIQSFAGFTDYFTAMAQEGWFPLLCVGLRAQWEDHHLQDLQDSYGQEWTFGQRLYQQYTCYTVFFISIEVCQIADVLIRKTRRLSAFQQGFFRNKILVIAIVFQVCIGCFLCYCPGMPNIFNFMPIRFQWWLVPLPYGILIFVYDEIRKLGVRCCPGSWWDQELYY
Sequence of HKα1-containing H^+,K^+-ATPases (P51164 whole entry partner): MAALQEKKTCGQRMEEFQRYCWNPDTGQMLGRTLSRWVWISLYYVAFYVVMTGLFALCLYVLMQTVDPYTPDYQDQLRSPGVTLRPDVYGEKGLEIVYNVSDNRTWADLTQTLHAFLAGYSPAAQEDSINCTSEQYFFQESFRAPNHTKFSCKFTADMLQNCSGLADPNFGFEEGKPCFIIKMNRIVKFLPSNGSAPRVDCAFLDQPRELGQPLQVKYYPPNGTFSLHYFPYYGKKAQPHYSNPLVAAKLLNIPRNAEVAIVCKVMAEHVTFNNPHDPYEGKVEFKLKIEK

SMILES: C[C@]12CCC(=O)C=C1CC[C@@H]1[C@@H]2[C@@H](O)C[C@]2(C=O)[C@@H](C(=O)CO)CC[C@@H]12 [aldosterone]
- effect on Schering 28080-sensitive ATPase activity (H^+,K^+-ATPase): did not significantly affect

SMILES: CC(=O)[C@H]1CC[C@H]2[C@@H]3CCC4=CC(=O)CC[C@]4(C)[C@H]3CC[C@]12C [progesterone]
- effect on renal HKa2 mRNA expression (HKa2 mRNA): stimulated

SMILES: Cc1nc2c(OCc3ccccc3)cccn2c1CC#N [Schering 28080]
- H+,K+-ATPase isoform inhibited [1]: only inhibit the HKα1-containing H^+,K^+-ATPases
